This experiment deals with ALS patient-derived iMNs (C9orf72 pathology). The experiment can be described thus: iPSC-derived motor neuron (iMN) survival assay with neurotrophic factor withdrawal. The class given is cell-based, human. The settings on record: for Median survival time of treated ALS iMNs: ALS patient-derived iMNs, 14-day period; for Surviving iMNs (cell count): 300 tracked ALS iMNs on day 0. On the procedure: In this study, iPSC-derived iMNs were generated from PALS (C9orf72 pathology) and from healthy donors' PBMCs. Neuronal survival rate was compared between PrimeC's components, their combination, and the relevant DMSO vehicle reference as described in Figure 2A-C. […] form between days 13 and 16 after transduction of iMN factors. The iMN survival assay was initiated on day 17. Starting at Day 17, longitudinal tracking of iMNs was performed using Molecular Devices ImageExpress once every other day for 16 days. Tracking of neuronal survival was performed using ImageJ version 1.53t. Neurons were scored as dead when their soma was no longer detectable by RFP fluorescence. iMN survival experiments included neurotrophic factor withdrawal in order to exacerbate the survival difference between control and PALS' iMNs. Neurotrophic factor withdrawal of FGF-2, BDNF, GDNF, and CNTF from the culture medium was performed on day 17. For treatment with drugs, cultures were treated with DMSO or a drug after neurotrophic factor withdrawal (starting at day 17). Treatment with fresh media containing vehicle or drugs occurred every 3 days for 16 days. […] Control cell lines of non-neurological subjects (i.e., neurologically healthy controls) were used in the comparisons. […] A hazard ratio was calculated for each of the comparisons as the likelihood of neuron death when treated with the indicated compound divided by the likelihood of neuron death when treated with another indicated compound. The lower the ratio, the […] it is for a cell to die when treated with the second compound compared to being treated with the first compound in each comparison above, and vice versa. Analysis utilized GraphPad Prism version 10.0.2 GraphPad. […] Kaplan-Meier plots were generated using iMNs obtained from each treatment condition in replicates of three. Confirmation of iMN survival times was analyzed by manual longitudinal tracking.

Where [1] appears, read: day 16, day 16 excluded from survival analyses.

SMILES strings stand for the structures.

As for `Cc1ccc(-c2cc(C(F)(F)F)nn2-c2ccc(S(N)(=O)=O)cc2)cc1` [Celecoxib, celecoxib], the “Median survival time of treated ALS iMNs” value amounted to 8 days. The “Surviving iMNs (cell count)” value (day 2) amounted to 300. The “Surviving iMNs (cell count)” value (day 4) is 272. The “Surviving iMNs (cell count)” value (day 6) is 227. Under “day 8”, the “Surviving iMNs (cell count)” value is 190. Where the note is “day 10”, the “Surviving iMNs (cell count)” value turned out to be 139. For the same compound, the “Surviving iMNs (cell count)” value (day 12) stood at 104. Further, where the note is “day 14”, the “Surviving iMNs (cell count)” value is 79. The “Surviving iMNs (cell count)” value under setting [1] is given as 55.

As to `O=C(O)c1cn(C2CC2)c2cc(N3CCNCC3)c(F)cc2c1=O` [Ciprofloxacin, ciprofloxacin], the “Median survival time of treated ALS iMNs” value was 8 days. Under “day 2”, the “Surviving iMNs (cell count)” value is given as 300. The “Surviving iMNs (cell count)” value (day 4) was 262. For the same compound, for the setting “day 6”, the “Surviving iMNs (cell count)” value was 238. Further, the “Surviving iMNs (cell count)” value (day 8) came out at 210. In addition, the “Surviving iMNs (cell count)” value (day 10) is 177. For the same compound, the “Surviving iMNs (cell count)” value (day 12) is on record as 146. For the setting “day 14”, the “Surviving iMNs (cell count)” value came to 118. Further, under setting [1], the “Surviving iMNs (cell count)” value amounted to 74.

The record behind these values is PMC12030000 (Pharmaceuticals, 2025).
